Measurements: patent US20220274954A1, “SUBSTITUTED N-PHENYL-N-AMINOUARCILS AND SALTS THEREOF AND USE THEREOF AS HERBICIDAL AGENTS” (Bayer Aktiengesellschaft, priority 2019, published 2022)

How the values were obtained:
Format in all cases: in vivo
Triticum aestivum = assay: Post-emergence crop plant compatibility
Experimental: (§1) Seeds of monocotyledonous and dicotyledonous weeds and crop plants were placed in sandy loam in plastic or wood-fiber pots, covered with soil and cultivated in a greenhouse under controlled growth conditions. 2 to 3 weeks after sowing, the test plants were treated at the one-leaf stage. The compounds of the invention, formulated in the form of wettable powders (WP) or as emulsion concentrates (EC), were then sprayed onto the green parts of the plants as aqueous suspension or emulsion with addition of 0.5% additive at a water application rate of […] (converted). After the test plants had been kept in the greenhouse under optimum growth conditions for about 3 weeks, the activity of the preparations was rated visually in comparison to untreated controls. For example, 100% activity=the plants have died, 0% activity=like control plants.
(§2) Here, the observed effects on selected crop plants are stated in comparison to the untreated controls (values in %).

Viola tricolor = assay: Post-emergence herbicidal action; conditions: for pest or weed control at 5 g/ha / pest or weed control at 20 g/ha: Viola tricolor, 504 h, read-out: Viola tricolor (efficacy in %)
Experimental: as §1, with “plants. Tables A1 to A14 below show the effects of selected compounds of the general formula (I) according to Tables I.1 to I.34 on various harmful plants and at an application rate corresponding to 20 g/ha and less, which were obtained by the experimental procedure mentioned above.” for “plants.”

Matricaria inodora = assay: Post-emergence herbicidal action; conditions: for pest or weed control at 5 g/ha / pest or weed control at 20 g/ha: Tripleurospermum inodorum, 504 h, read-out: Matricaria inodora (efficacy in %)
Experimental: as §1, with “plants. Tables A1 to A14 below show the effects of selected compounds of the general formula (I) according to Tables I.1 to I.34 on various harmful plants and at an application rate corresponding to 20 g/ha and less, which were obtained by the experimental procedure mentioned above.” for “plants.”

Alopecurus myosuroides = assay: Post-emergence herbicidal action
Experimental: as §1, with “plants. Tables A1 to A14 below show the effects of selected compounds of the general formula (I) according to Tables I.1 to I.34 on various harmful plants and at an application rate corresponding to 20 g/ha and less, which were obtained by the experimental procedure mentioned above.” for “plants.”

Veronica persica = assay: Post-emergence herbicidal action; conditions: for pest or weed control at 5 g/ha / pest or weed control at 20 g/ha: Veronica persica, 504 h, read-out: Veronica persica (efficacy in %)
Experimental: as §1, with “plants. Tables A1 to A14 below show the effects of selected compounds of the general formula (I) according to Tables I.1 to I.34 on various harmful plants and at an application rate corresponding to 20 g/ha and less, which were obtained by the experimental procedure mentioned above.” for “plants.”

Echinochloa crus-galli = assay: Post-emergence herbicidal action; conditions: for pest or weed control at 5 g/ha / pest or weed control at 20 g/ha: Echinochloa crus-galli, 504 h, read-out: Echinochloa crus-galli (efficacy in %)
Experimental: as §1, with “plants. Tables A1 to A14 below show the effects of selected compounds of the general formula (I) according to Tables I.1 to I.34 on various harmful plants and at an application rate corresponding to 20 g/ha and less, which were obtained by the experimental procedure mentioned above.” for “plants.”

Abutilon theophrasti = assay: Post-emergence herbicidal action; conditions: for pest or weed control at 5 g/ha / pest or weed control at 20 g/ha: Abutilon theophrasti, 504 h, read-out: Abutilon theophrasti (efficacy in %)
Experimental: as §1, with “plants. Tables A1 to A14 below show the effects of selected compounds of the general formula (I) according to Tables I.1 to I.34 on various harmful plants and at an application rate corresponding to 20 g/ha and less, which were obtained by the experimental procedure mentioned above.” for “plants.”

Amaranthus retroflexus = assay: Post-emergence herbicidal action; conditions: for pest or weed control at 5 g/ha / pest or weed control at 20 g/ha: Amaranthus retroflexus, 504 h, read-out: Amaranthus retroflexus (efficacy in %)
Experimental: as §1, with “plants. Tables A1 to A14 below show the effects of selected compounds of the general formula (I) according to Tables I.1 to I.34 on various harmful plants and at an application rate corresponding to 20 g/ha and less, which were obtained by the experimental procedure mentioned above.” for “plants.”

Pharbitis purpurea = assay: Post-emergence herbicidal action; conditions: for pest or weed control at 5 g/ha / pest or weed control at 20 g/ha: Ipomoea purpurea, 504 h, read-out: Pharbitis purpurea (efficacy in %)
Experimental: as §1, with “plants. Tables A1 to A14 below show the effects of selected compounds of the general formula (I) according to Tables I.1 to I.34 on various harmful plants and at an application rate corresponding to 20 g/ha and less, which were obtained by the experimental procedure mentioned above.” for “plants.”

Oryza sativa = assay: Post-emergence crop plant compatibility
Experimental: as §1, §2

Polygonum convolvulus = assay: Post-emergence herbicidal action; conditions: Fallopia convolvulus, 504 h, read-out: Polygonum convolvulus (efficacy in %); for pest or weed control at 20 g/ha: application rate 20 g/ha
Experimental: as §1, with “plants. Tables A1 to A14 below show the effects of selected compounds of the general formula (I) according to Tables I.1 to I.34 on various harmful plants and at an application rate corresponding to 20 g/ha and less, which were obtained by the experimental procedure mentioned above.” for “plants.”

Setaria viridis = assay: Post-emergence herbicidal action; conditions: 504 h, read-out: Setaria viridis (efficacy in %); for pest or weed control at 5 g/ha: application rate 5 g/ha; for pest or weed control at 20 g/ha: application rate 20 g/ha
Experimental: as §1, with “plants. Tables A1 to A14 below show the effects of selected compounds of the general formula (I) according to Tables I.1 to I.34 on various harmful plants and at an application rate corresponding to 20 g/ha and less, which were obtained by the experimental procedure mentioned above.” for “plants.”

Digitaria sanguinalis = assay: Post-emergence herbicidal action; conditions: 504 h, read-out: Digitaria sanguinalis (efficacy in %); for pest or weed control at 20 g/ha: application rate 20 g/ha
Experimental: as §1, with “plants. Tables A1 to A14 below show the effects of selected compounds of the general formula (I) according to Tables I.1 to I.34 on various harmful plants and at an application rate corresponding to 20 g/ha and less, which were obtained by the experimental procedure mentioned above.” for “plants.”

Zea mays = assay: Post-emergence crop plant compatibility; conditions: application rate 5 g/ha
Experimental: as §1, §2

Avena fatua = assay: Post-emergence herbicidal action; conditions: application rate 20 g/ha
Experimental: as §1, with “plants. Tables A1 to A14 below show the effects of selected compounds of the general formula (I) according to Tables I.1 to I.34 on various harmful plants and at an application rate corresponding to 20 g/ha and less, which were obtained by the experimental procedure mentioned above.” for “plants.”

| Structure (SMILES) | Triticum aestivum (efficacy in %) (Triticum aestivum; application rate 1.25 g/ha) | Viola tricolor (efficacy in %) (Viola tricolor; application rate 5 g/ha) | Viola tricolor (efficacy in %) (Viola tricolor; application rate 20 g/ha) | Matricaria inodora (efficacy in %) (Matricaria inodora; application rate 20 g/ha) | Alopecurus myosuroides (efficacy in %) (Alopecurus myosuroides; application rate 5 g/ha) | Alopecurus myosuroides (efficacy in %) (Alopecurus myosuroides; application rate 20 g/ha) | Veronica persica (efficacy in %) (Veronica persica; application rate 5 g/ha) | Veronica persica (efficacy in %) (Veronica persica; application rate 20 g/ha) | Echinochloa crus-galli (efficacy in %) (Echinochloa crus-galli; application rate 5 g/ha) | Echinochloa crus-galli (efficacy in %) (Echinochloa crus-galli; application rate 20 g/ha) | Oryza sativa (efficacy in %) (Oryza sativa; application rate 5 g/ha) | pest or weed control at 5 g/ha (Viola tricolor; application rate 5 g/ha) | pest or weed control at 20 g/ha (Viola tricolor; application rate 20 g/ha) | pest or weed control at 5 g/ha (Veronica persica; application rate 5 g/ha) | pest or weed control at 20 g/ha (Veronica persica; application rate 20 g/ha) | pest or weed control at 5 g/ha (Abutilon theophrasti; application rate 5 g/ha) | pest or weed control at 20 g/ha (Abutilon theophrasti; application rate 20 g/ha) | pest or weed control at 5 g/ha (Amaranthus retroflexus; application rate 5 g/ha) | pest or weed control at 20 g/ha (Amaranthus retroflexus; application rate 20 g/ha) | pest or weed control at 20 g/ha (Pharbitis purpurea; application rate 20 g/ha) | other results |
| --- | --- | --- | --- | --- | --- | --- | --- | --- | --- | --- | --- | --- | --- | --- | --- | --- | --- | --- | --- | --- | --- |
| Nn1c(C(F)(F)F)cc(=O)n(-c2cc(Sc3cccnc3OCC(=O)OC3COC3)c(Cl)cc2F)c1=O [I.1-115] | 20% | 100% | 100% | 100% | 80% | 100% | 100% | 100% | 90% | 100% |  |  |  |  |  |  |  |  |  |  | Matricaria inodora (efficacy in %) (Matricaria inodora; application rate 5 g/ha): 100%; Abutilon theophrasti (efficacy in %) (Abutilon theophrasti; application rate 5 g/ha): 90%; Abutilon theophrasti (efficacy in %) (Abutilon theophrasti; application rate 20 g/ha): 100%; Amaranthus retroflexus (efficacy in %) (Amaranthus retroflexus; application rate 5 g/ha): 100%; Amaranthus retroflexus (efficacy in %) (Amaranthus retroflexus; application rate 20 g/ha): 100%; Pharbitis purpurea (efficacy in %) (Pharbitis purpurea; application rate 5 g/ha): 100%; Pharbitis purpurea (efficacy in %) (Pharbitis purpurea; application rate 20 g/ha): 100% |
| CCCCOC(=O)COc1ncccc1Sc1cc(-n2c(=O)cc(C(F)(F)F)n(N)c2=O)c(F)cc1Cl [I.1-447, n-Butyl {[3-({5-[3-amino-2,6-dioxo-4-(trifluoromethyl)-3,6-dihydropyrimidin-1(2H)-yl]-2-chloro-4-fluorophenyl}sulfanyl)pyridin-2-yl]oxy}acetate] | 10% |  |  |  | 80% | 90% |  |  |  |  | 10% | 100% | 100% | 100% | 100% | 100% | 100% | 100% | 100% | 100% | Oryza sativa (efficacy in %) (Oryza sativa; application rate 1.25 g/ha): 0%; pest or weed control at 5 g/ha (Matricaria inodora; application rate 5 g/ha): 100%; pest or weed control at 20 g/ha (Matricaria inodora; application rate 20 g/ha): 100%; pest or weed control at 5 g/ha (Echinochloa crus-galli; application rate 5 g/ha): 100%; pest or weed control at 20 g/ha (Echinochloa crus-galli; application rate 20 g/ha): 100%; pest or weed control at 5 g/ha (Polygonum convolvulus; application rate 5 g/ha): 100%; pest or weed control at 20 g/ha (Polygonum convolvulus): 100%; pest or weed control at 5 g/ha (Setaria viridis): 100%; pest or weed control at 20 g/ha (Setaria viridis): 100%; pest or weed control at 5 g/ha (Digitaria sanguinalis; application rate 5 g/ha): 100%; pest or weed control at 20 g/ha (Digitaria sanguinalis): 100%; pest or weed control at 5 g/ha (Pharbitis purpurea; application rate 5 g/ha): 100% |
| CCCCCOC(=O)COc1ncccc1Sc1cc(-n2c(=O)cc(C(F)(F)F)n(N)c2=O)c(F)cc1Cl [I.1-448, n-Pentyl {[3-({5-[3-amino-2,6-dioxo-4-(trifluoromethyl)-3,6-dihydropyrimidin-1(2H)-yl]-2-chloro-4-fluorophenyl}sulfanyl)pyridin-2-yl]oxy}acetate] | 0% |  |  |  |  |  |  |  |  |  | 0% | 100% | 100% | 80% | 80% | 80% | 80% | 100% | 100% | 100% | Zea mays (efficacy in %) (Zea mays): 20%; Triticum aestivum (efficacy in %) (Triticum aestivum; application rate 5 g/ha): 10%; pest or weed control at 20 g/ha (Polygonum convolvulus): 100%; pest or weed control at 5 g/ha (Setaria viridis): 80%; pest or weed control at 20 g/ha (Setaria viridis): 100%; pest or weed control at 20 g/ha (Digitaria sanguinalis): 100% |
| COCCOCCOC(=O)COc1ncc(F)cc1Sc1cc(-n2c(=O)cc(C(F)(F)F)n(N)c2=O)c(F)cc1Cl [I.31-23, 2-(2-Methoxyethoxy)ethyl {[3-({5-[3-amino-2,6-dioxo-4-(trifluoromethyl)-3,6-dihydropyrimidin-1(2H)-yl]-2-chloro-4-fluorophenyl}sulfanyl)-5-fluoropyridin-2-yl]oxy}acetate] |  |  |  |  |  | 100% |  |  |  |  | 20% | 100% | 100% | 100% | 100% | 100% | 100% | 100% | 100% | 100% | pest or weed control at 5 g/ha (Matricaria inodora; application rate 5 g/ha): 100%; pest or weed control at 20 g/ha (Matricaria inodora; application rate 20 g/ha): 100%; Avena fatua (efficacy in %) (Avena fatua): 80%; pest or weed control at 5 g/ha (Echinochloa crus-galli; application rate 5 g/ha): 80%; pest or weed control at 20 g/ha (Echinochloa crus-galli; application rate 20 g/ha): 100%; pest or weed control at 5 g/ha (Pharbitis purpurea; application rate 5 g/ha): 100% |
| CCOC(=O)COc1ncc(F)cc1Sc1cc(-n2c(=O)cc(C(F)(F)F)n(N)c2=O)c(F)cc1Cl [I.31-442] | 10% | 100% | 100% | 100% | 80% | 90% | 100% | 100% | 90% | 90% | 10% |  |  |  |  |  |  |  |  |  | Oryza sativa (efficacy in %) (Oryza sativa; application rate 1.25 g/ha): 0%; Triticum aestivum (efficacy in %) (Triticum aestivum; application rate 5 g/ha): 20%; Abutilon theophrasti (efficacy in %) (Abutilon theophrasti; application rate 5 g/ha): 100%; Abutilon theophrasti (efficacy in %) (Abutilon theophrasti; application rate 20 g/ha): 100%; Amaranthus retroflexus (efficacy in %) (Amaranthus retroflexus; application rate 5 g/ha): 100%; Amaranthus retroflexus (efficacy in %) (Amaranthus retroflexus; application rate 20 g/ha): 100%; Pharbitis purpurea (efficacy in %) (Pharbitis purpurea; application rate 5 g/ha): 80%; Pharbitis purpurea (efficacy in %) (Pharbitis purpurea; application rate 20 g/ha): 100% |
